Assay results published in US5652247A, “Carbostyril derivatives” (Otsuka Pharmaceutical Co., Ltd, priority 1989, dated 1997).

Target: T1, V1 receptor (Rattus norvegicus, UniProt P30560)
T1 construct: rat liver plasma membrane preparations; from tissue; host or cells: rat liver plasma membranes
Experiment: V1 receptor binding assay
Conditions: [H]^3-Arg-vasopressin 2×10^-10 M, rat liver plasma membrane, 37° C., 10 minutes, pH 8.0

T1 sequence (P30560 whole entry): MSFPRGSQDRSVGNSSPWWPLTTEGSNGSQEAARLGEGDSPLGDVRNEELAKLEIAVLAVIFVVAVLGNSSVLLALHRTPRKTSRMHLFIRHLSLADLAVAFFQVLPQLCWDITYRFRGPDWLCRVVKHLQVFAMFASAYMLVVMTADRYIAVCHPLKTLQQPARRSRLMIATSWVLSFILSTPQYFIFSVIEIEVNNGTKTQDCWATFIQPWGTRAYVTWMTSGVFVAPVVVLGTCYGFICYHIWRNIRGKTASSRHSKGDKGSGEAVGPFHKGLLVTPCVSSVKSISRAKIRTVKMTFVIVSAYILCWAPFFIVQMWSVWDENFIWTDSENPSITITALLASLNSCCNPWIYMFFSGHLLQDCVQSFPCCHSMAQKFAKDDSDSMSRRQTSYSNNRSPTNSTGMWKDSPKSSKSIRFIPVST

Compound | IC50
C#CCc1ccc(C(=O)N2CCC(N3C(=O)CCc4ccccc43)CC2)cc1 [Example 96, 1-[1-(4-Propargylbenzoyl)-4-piperidinyl]-3,4-dihydrocarbostyril] | 600 nM
CN(C)c1ccc(S(=O)(=O)CCCCCOc2ccc(C(=O)N3CCC(N4C(=O)CCc5ccccc54)CC3)cc2)cc1 [Example 290, 1-{1-(4-[5-(4-Dimethylaminophenylsulfonyl)pentyloxy]benzoyl)-4-piperidinyl}-3,4-dihydrocarbostyril] | 300 nM
